Experimental data reported in patent US9090605B2, “Substituted 5-,6- and 7-membered heterocycles, medicaments containing such compounds, and their use” (Vitae Pharmaceuticals, Inc., priority 2010, dated 2015).

Biological target: 11β-HSD1 (Homo sapiens, UniProt P28845)
Assay: In vitro inhibition of 11β-HSD1, HTRF detection of cortisol generated by human liver microsomes (biological test example 1)
Type: biochemical
Set-up: detecting cortisol generated from cortisterone by human liver microsomes; from tissue; host or cells: human liver microsomes
Conditions: 1 hour at 37° C., cortisone 80 nM, NADPH 200 μM, read-out: IC50, inhibitory activity on 11β-HSD 1
Protocol: Briefly, compounds were incubated for 1 hour at 37° C. in Tris buffer (20 mM tris, 5 mM EDTA, pH 6.0) containing NADPH (200 μM) and cortisone (80 nM). Cortisol generated in the reaction was then detected with a competitive immunoassay, involving two HTRF conjugates: cortisol linked to XL665 and anti-cortisol antibody labeled with Europium cryptate. The incubation period for detection reaction was typically 2 hours. The amount of cortisol was determined by reading the time-resolved fluorescence of the wells (Ex 320/75 nm; Em 615/8.5 nm and 665/7.5 nm). The ratio of the two emission signals was then calculated (Em665*10000/Em615). […] Each assay also contained a calibration curve with cortisol to transform the fluorescent data into cortisol concentrations. Percent inhibition (% CTL) of each compound was determined relative to the carbenoxolone signal and IC50 curves were generated.

Sequence of 11β-HSD1 (P28845 whole entry): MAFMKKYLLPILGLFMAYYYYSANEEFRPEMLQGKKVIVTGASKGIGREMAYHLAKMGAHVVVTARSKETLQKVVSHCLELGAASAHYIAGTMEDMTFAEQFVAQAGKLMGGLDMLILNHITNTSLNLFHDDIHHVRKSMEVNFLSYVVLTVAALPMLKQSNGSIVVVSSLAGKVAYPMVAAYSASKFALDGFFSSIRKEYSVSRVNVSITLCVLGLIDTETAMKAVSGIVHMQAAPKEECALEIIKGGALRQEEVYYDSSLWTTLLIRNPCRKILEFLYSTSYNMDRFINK

Compound | IC50
C[C@@H](c1ccc(-c2cccc(C3(S(C)(=O)=O)CC3)n2)cc1)N1CC[C@](CC(C)(C)O)(c2ccccc2)OC1=O [Example 20, (S)-6-(2-Hydroxy-2-methyl-propyl)-3-((S)-1-{4-[6-(1-methanesulfonyl-cyclopropyl)-pyridin-2-yl]-phenyl}-ethyl)-6-phenyl-[1,3]oxazinan-2-one] | 73 nM
C[C@@H](c1ccc(-c2ccnc(C3(S(C)(=O)=O)CC3)c2)cc1)N1CC[C@](CC(C)(C)O)(c2ccccc2)OC1=O [Example 21, (S)-6-(2-Hydroxy-2-methyl-propyl)-3-((S)-1-{4-[2-(1-methanesulfonyl-cyclopropyl)-pyridin-4-yl]-phenyl}-ethyl)-6-phenyl-[1,3]oxazinan-2-one] | 52 nM
C[C@@H](c1ccc(-c2cccc(C3(C(N)=O)CC3)n2)cc1)N1CC[C@](CC(C)(C)O)(c2ccccc2)OC1=O [Example 22, 1-[6-(4-{(S)-1-[(S)-6-(2-Hydroxy-2-methyl-propyl)-2-oxo-6-phenyl-[1,3]oxazinan-3-yl]-ethyl}-phenyl)-pyridin-2-yl]-cyclopropanecarboxylic acid amide] | 86 nM
CNC(=O)C1(c2cccc(-c3ccc([C@H](C)N4CC[C@](CC(C)(C)O)(c5ccccc5)OC4=O)cc3)n2)CC1 [Example 23, 1-[6-(4-{(S)-1-[(S)-6-(2-Hydroxy-2-methyl-propyl)-2-oxo-6-phenyl-[1,3]oxazinan-3-yl]-ethyl}-phenyl)-pyridin-2-yl]-cyclopropanecarboxylic acid methylamide] | 115 nM
C[C@@H](c1ccc(-c2cccc(C3(C(=O)N(C)C)CC3)n2)cc1)N1CC[C@](CC(C)(C)O)(c2ccccc2)OC1=O [Example 24, 1-[6-(4-{(S)-1-[(S)-6-(2-Hydroxy-2-methyl-propyl)-2-oxo-6-phenyl-[1,3]oxazinan-3-yl]-ethyl}-phenyl)-pyridin-2-yl]-cyclopropanecarboxylic acid dimethylamide] | 53 nM
C[C@@H](c1ccc(-c2ccc(C3(S(C)(=O)=O)CC3)cn2)cc1)N1CC[C@](CC(C)(C)O)(c2ccccc2)OC1=O [Example 25, (S)-6-(2-Hydroxy-2-methyl-propyl)-3-((S)-1-{4-[5-(1-methanesulfonyl-cyclopropyl)-pyridin-2-yl]-phenyl}-ethyl)-6-phenyl-[1,3]oxazinan-2-one] | 84 nM
C[C@@H](c1ccc(-c2ccc(C3(C(N)=O)CCCC3)nc2)cc1)N1CC[C@](CC(C)(C)O)(c2ccccc2)OC1=O [Example 42, 1-[5-(4-{(S)-1-[(S)-6-(2-Hydroxy-2-methyl-propyl)-2-oxo-6-phenyl-[1,3]oxazinan-3-yl]-ethyl}-phenyl)-pyridin-2-yl]-cyclopentanecarboxylic acid amide] | 56 nM
C[C@@H](c1ccc(-c2ccc(C3(C(N)=O)CCCCC3)nc2)cc1)N1CC[C@](CC(C)(C)O)(c2ccccc2)OC1=O [Example 43, 1-[5-(4-{(S)-1-[(S)-6-(2-Hydroxy-2-methyl-propyl)-2-oxo-6-phenyl-[1,3]oxazinan-3-yl]-ethyl}-phenyl)-pyridin-2-yl]-cyclohexanecarboxylic acid amide] | 67 nM
CCOC(=O)C1(c2cc(-c3ccc([C@H](C)N4CC[C@](CC(C)(C)O)(c5ccccc5)OC4=O)cc3)ccn2)CC1 [Example 44, 1-[4-(4-{(S)-1-[(S)-6-(2-Hydroxy-2-methyl-propyl)-2-oxo-6-phenyl-[1,3]oxazinan-3-yl]-ethyl}-phenyl)-pyridin-2-yl]-cyclopropanecarboxylic acid ethyl ester] | 181 nM
C[C@@H](c1ccc(-c2ccnc(C3(C(=O)O)CC3)c2)cc1)N1CC[C@](CC(C)(C)O)(c2ccccc2)OC1=O [Example 45, 1-[4-(4-{(S)-1-[(S)-6-(2-Hydroxy-2-methyl-propyl)-2-oxo-6-phenyl-[1,3]oxazinan-3-yl]-ethyl}-phenyl)-pyridin-2-yl]-cyclopropanecarboxylic acid] | 186 nM
C[C@@H](c1ccc(-c2ccnc(C3(C(N)=O)CC3)c2)cc1)N1CC[C@](CC(C)(C)O)(c2ccccc2)OC1=O [Example 46, 1-[4-(4-{(S)-1-[(S)-6-(2-Hydroxy-2-methyl-propyl)-2-oxo-6-phenyl-[1,3]oxazinan-3-yl]-ethyl}-phenyl)-pyridin-2-yl]-cyclopropanecarboxylic acid amide] | 56 nM
CNC(=O)C1(c2cc(-c3ccc([C@H](C)N4CC[C@](CC(C)(C)O)(c5ccccc5)OC4=O)cc3)ccn2)CC1 [Example 47, 1-[4-(4-{(S)-1-[(S)-6-(2-Hydroxy-2-methyl-propyl)-2-oxo-6-phenyl-[1,3]oxazinan-3-yl]-ethyl}-phenyl)-pyridin-2-yl]-cyclopropanecarboxylic acid methylamide] | 65 nM
C[C@@H](c1ccc(-c2ccnc(C3(C(=O)N(C)C)CC3)c2)cc1)N1CC[C@](CC(C)(C)O)(c2ccccc2)OC1=O [Example 48, 1-[4-(4-{(S)-1-[(S)-6-(2-Hydroxy-2-methyl-propyl)-2-oxo-6-phenyl-[1,3]oxazinan-3-yl]-ethyl}-phenyl)-pyridin-2-yl]-cyclopropanecarboxylic acid dimethylamide] | 47 nM
C[C@@H](c1ccc(-c2ccc(C3(C(N)=O)CCOCC3)nc2)cc1)N1CC[C@](CC(C)(C)O)(c2ccccc2)OC1=O [Example 50, 4-[5-(4-{(S)-1-[(S)-6-(2-Hydroxy-2-methyl-propyl)-2-oxo-6-phenyl-[1,3]oxazinan-3-yl]-ethyl}-phenyl)-pyridin-2-yl]-tetrahydro-pyran-4-carboxylic acid amide] | 73 nM
C[C@@H](c1ccc(-c2ccc(C3(C(N)=O)CCC3)nc2)cc1)N1CC[C@](CC(C)(C)O)(c2ccccc2)OC1=O [Example 51, 1-[5-(4-{(S)-1-[(S)-6-(2-Hydroxy-2-methyl-propyl)-2-oxo-6-phenyl-[1,3]oxazinan-3-yl]-ethyl}-phenyl)-pyridin-2-yl]-cyclobutanecarboxylic acid amide] | 80 nM
C[C@@H](c1ccc(-c2ccc(C3CCN(C)C3=O)nc2)cc1)N1CC[C@](CC(C)(C)O)(c2ccccc2)OC1=O (stereo partly drawn) [Example 52, (S)-6-(2-Hydroxy-2-methyl-propyl)-3-((S)-1-{4-[6-(1-methyl-2-oxo-pyrrolidin-3-yl)-pyridin-3-yl]-phenyl}-ethyl)-6-phenyl-[1,3]oxazinan-2-one] | 42 nM
C[C@@H](c1ccc(-c2ccc(N3CCC[C@@H]3C(N)=O)nc2)cc1)N1CC[C@](CC(C)(C)O)(c2ccccc2)OC1=O [Example 53, (R)-1-[5-(4-{(S)-1-[(S)-6-(2-Hydroxy-2-methyl-propyl)-2-oxo-6-phenyl-[1,3]oxazinan-3-yl]-ethyl}-phenyl)-pyridin-2-yl]-pyrrolidine-2-carboxylic acid amide] | 43 nM
C[C@@H](c1ccc(-c2ccc(N3CCC[C@H]3C(N)=O)nc2)cc1)N1CC[C@](CC(C)(C)O)(c2ccccc2)OC1=O [Example 54, (S)-1-[5-(4-{(S)-1-[(S)-6-(2-Hydroxy-2-methyl-propyl)-2-oxo-6-phenyl-[1,3]oxazinan-3-yl]-ethyl}-phenyl)-pyridin-2-yl]-pyrrolidine-2-carboxylic acid amide] | 30 nM
C[C@@H](c1ccc(-c2ccc(N3CCC[C@@H]3C(N)=O)nn2)cc1)N1CC[C@](CC(C)(C)O)(c2ccccc2)OC1=O [Example 55, (R)-1-[6-(4-{(S)-1-[(S)-6-(2-Hydroxy-2-methyl-propyl)-2-oxo-6-phenyl-[1,3]oxazinan-3-yl]-ethyl}-phenyl)-pyridazin-3-yl]-pyrrolidine-2-carboxylic acid amide] | 87 nM
C[C@@H](c1ccc(-c2ccc(C3(O)CCN(C)C3=O)nc2)cc1)N1CC[C@](CC(C)(C)O)(c2ccccc2)OC1=O (stereo partly drawn) [Example 56, 3-((S)-1-{4-[6-(3-Hydroxy-1-methyl-2-oxo-pyrrolidin-3-yl)-pyridin-3-yl]-phenyl}-ethyl)-(S)-6-(2-hydroxy-2-methyl-propyl)-6-phenyl-[1,3]oxazinan-2-one] | 59 nM
C[C@@H](c1ccc(-c2ccc(C3(C)CCN(C)C3=O)nc2)cc1)N1CC[C@](CC(C)(C)O)(c2ccccc2)OC1=O (stereo partly drawn) [Example 57, 3-((S)-1-{4-[6-(1,3-Dimethyl-2-oxo-pyrrolidin-3-yl)-pyridin-3-yl]-phenyl}-ethyl)-(S)-6-(2-hydroxy-2-methyl-propyl)-6-phenyl-[1,3]oxazinan-2-one] | 29 nM
